In test [1] the target is T1, human VDR receptor (Homo sapiens, UniProt P11473).
T1 construct: expressed in transfected cells; host or cells: HeLa
T1 sequence (P11473 1-427): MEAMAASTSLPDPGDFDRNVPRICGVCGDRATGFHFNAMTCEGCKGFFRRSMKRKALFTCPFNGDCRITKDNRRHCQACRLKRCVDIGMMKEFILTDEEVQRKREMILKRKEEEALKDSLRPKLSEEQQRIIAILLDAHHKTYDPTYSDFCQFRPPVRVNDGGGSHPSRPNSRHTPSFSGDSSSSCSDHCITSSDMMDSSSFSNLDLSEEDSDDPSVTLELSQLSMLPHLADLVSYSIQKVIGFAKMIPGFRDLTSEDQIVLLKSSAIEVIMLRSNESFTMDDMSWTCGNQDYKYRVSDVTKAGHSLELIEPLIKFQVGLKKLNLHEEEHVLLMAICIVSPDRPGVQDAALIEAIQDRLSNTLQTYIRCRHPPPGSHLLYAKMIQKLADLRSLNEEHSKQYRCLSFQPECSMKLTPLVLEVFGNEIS
Nature of the test: VDR agonist activity, co-transfection of human VDR expression vector and p240Hase-CAT reporter in HeLa cells. In kind it is cell-based. Particulars: HeLa cell line, CAT reporter under rat 24-hydroxylase promoter, 18 hours treatment, ELISA; read-out: AC 50 (dose required to achieve 50% of the maximum activity of the product). The protocol: By way of example, the VDR agonist activity can be tested on the HeLa cell line by co-transfection with an expression vector for the human VDR receptor and the reporter plasmid p240Hase-CAT which contains the region −1399 to +76 of rat 24-hydroxylase promoter, cloned upstream of the frame encoding the chloramphenicol-acetyl-transferase (CAT)′gene. 18 hours after co-transfection, the test product is added to the medium. 18 hours after treatment, assay of the CAT activity in the cell lysates is carried out by an ELISA test. The results are expressed as percentages of the effect normally observed with 10^−7M calcitriol.
The agonist activity can also be characterized in this co-transfection system, by determining the dose required to reach 50% of the maximum activity of the product (AC50).
The VDR agonist activity was tested on the HeLa cell line, by co-transfection of an expression vector of the human VDR receptor and of the reporter plasmid p240Hase-CAT which contains the region −1399 to +76 of the rat 24-hydroxylase promoter, cloned upstream of the coding frame of the chloramphenicol-acetyl-transferase (CAT) gene. 18 hours after co-transfection, the test product is added to the medium. After treatment for 18 hours, the CAT activity of the cell lysates is assayed by an ELISA test. The results are expressed as a percentage of the effect normally observed with 10^−7 M of calcitriol.
The agonist activity was characterized in this co-transfection system by determining the dose required to achieve 50% of the maximum activity of the product (AC50).

The test system of test [2] is seborrhoeic scalp. Nature of the test: antiseboric lotion applied to a seborrhoeic scalp. Format: in vivo. Conditions: lotion with 0.030 g compound per 100 g, applied twice a day, within a period of 2 to 6 weeks.

As for `CCC(O)(CC)c1cc(C)c(-c2cc(OCc3ccc(CO)c(CO)c3)ccc2C)c(C)c1` [Example 17, {4-[4′-(1-Ethyl-1-hydroxypropyl)-6,2′,6′-trimethylbiphenyl-3-yloxymethyl]-2-hydroxymethylphenyl}methanol], in test [1], the AC50 is 194 nM.

In the case of `CCC(O)(CC)c1ccc(-c2cccc(SCc3ccc(CO)c(CO)c3)c2)c(C)c1` [Example 10, {4-[4′-(1-Ethyl-1-hydroxypropyl)-2′-methylbiphenyl-3-ylsulphanylmethyl]-2-hydroxymethylphenyl}methanol], the AC50 in test [1] worked out at 2040 nM.

For the compound `CCC(O)(CC)c1ccc(-c2cc(OCc3ccc(CO)c(CO)c3)ccc2C)cc1` [Example 18, {4-[4′-(1-Ethyl-1-hydroxypropyl)-6-methylbiphenyl-3-yloxymethyl]-2-hydroxymethylphenyl}methanol], in test [1], the AC50 was determined as 133 nM.

Turning to `CCC(O)(CC)c1ccc(-c2cccc(COc3ccc(CO)c(CO)c3)c2)c(C)c1` [Example 22, {4-[4′-(1-Ethyl-1-hydroxypropyl)-2′-methylbiphenyl-3-ylmethoxy]-2-hydroxymethylphenyl}methanol], the AC50 in test [1] amounted to 451 nM.

Regarding `CCC(O)(CC)c1ccc(-c2cc(OCc3ccc(CO)c(CO)c3)ccc2C)c(C)c1` [Example 16, {4-[4′-(1-Ethyl-1-hydroxypropyl)-6,2′-dimethylbiphenyl-3-yloxymethyl]-2-hydroxymethylphenyl}methanol], the AC50 in test [1] is 46 nM.

Take `CCC(O)(CC)c1ccc(-c2cccc(OCc3ccc(CO)c(CO)c3)c2)c(C)c1` [Example 3, {5-4′-[(1-Ethyl-1-hydroxypropyl)-2′-methylbiphenyl-3-yloxymethyl]-2-hydroxymethylphenyl}methanol]: in test [1], the AC50 amounted to 470 nM.

`CCCC(O)(CCC)c1ccc(-c2cccc(OCc3ccc(CO)c(CO)c3)c2C)c(C)c1` [Example 12, {2-Hydroxymethyl-4-[4′-(1-hydroxy-1-propylbutyl)-2,2′-dimethylbiphenyl-3-yloxymethyl]phenyl}methanol]: the “improvement of seborrhoeic scalp” value in test [2] is “significant improvement”.

Turning to `CCC(O)(CC)c1ccc(-c2cccc(OCc3ccc(CO)c(CO)c3)c2C)c(C)c1` [Example 11, {4-[4′-(1-Ethyl-1-hydroxypropl)-2,2′-dimethylbiphenyl-3-yloxymethyl]-2-hydroxymethylphenyl}methanol], the AC50 in test [1] stood at 291 nM.

These data come from US6831106B1, “Vitamin D analogues” (Galderma Research & Development, S.N.C., priority 1999, dated 2004).
